Each compound was assayed against human PDE10A2 (Homo sapiens (Human), UniProt Q9Y233) (assay: PDE10 fluorescence polarization (IMAP FP) inhibition assay). Conditions: human PDE10 enzyme, FAM-labeled cAMP substrate, read-out: PDE10A Ki.
Type: biochemical
Protocol: The activity of the compounds in accordance with the present invention as PDE10 inhibitors may be readily determined without undue experimentation using a fluorescence polarization (FP) methodology that is well known in the art (Huang, W., et al.,J. Biomol Screen, 2002, 7: 215).
In a typical experiment the PDE10 inhibitory activity of the compounds of the present invention was determined in accordance with the following experimental method. PDE10A2 was amplified from human fetal brain cDNA (Clontech, Mountain View, Calif.) using a forward primer corresponding to nucleotides 56-77 of human PDE10A2 (Accession No. AF127480, Genbank Identifier 4894716), containing a Kozak consensus sequence, and a reverse primer corresponding to nucleotides 2406-2413 of human PDE10A2 (Accession No. AF127480, Genbank Identifier 4894716). Amplification with Easy-A polymerase (Stratagene, La Jolla, Calif.) was 95° C. for 2 minutes followed by thirty three cycles of 95° C. for 40 seconds, 55° C. for 30 seconds, and 72° C. for 2 minutes 48 seconds. Final extension was 72° C. for 7 minutes. The PCR product was TA cloned into pcDNA3.2-TOPO (Invitrogen, Carlsbad, Calif.) according to standard protocol. AD293 cells with 70-80% confluency were transiently transfected with human PDE10A2/pcDNA3.2-TOPO using Lipofectamine 2000 according to manufacturer specifications (Invitrogen, Carlsbad, Calif.). Cells were harvested 48 hours post-transfection and lysed by sonication (setting 3, 10×5 sec pulses) in a buffer containing 20 mM HEPES, 1 mM EDTA and protease inhibitor cocktail (Roche). Lysate was collected by centrifugation at 75,000×g for 20 minutes. Supernatant containing the cytoplasmic fraction was used for evaluation of PDE10A2 activity. The fluorescence polarization assay for cyclic nucleotide phosphodiesterases was performed using an IMAP® FP kit supplied by Molecular Devices, Sunnyvale, Calif. (product # R8139). IMAP® technology has been applied previously to phosphodiesterase assays (Huang, W., et al., J. Biomol Screen, 2002, 7: 215). Assays were performed at room temperature in 384-well microtiter plates with an incubation volume of 20.2 μL. Solutions of test compounds were prepared in DMSO and serially diluted with DMSO to yield 8 μL of each of 10 solutions differing by 3-fold in concentration, at 32 serial dilutions per plate. 100% inhibition is determined using a known PDE10 inhibitor, which can be any compound that is present at 5,000 times its Ki value in the assay described as follows, such as papaverine (see Siuciak, et al. Neuropharmacology (2006) 51:386-396; Becker, et al. Behav Brain Res (2008) 186(2):155-60; Threlfell, et al., J Pharmacol Exp Ther (2009) 328(3):785-795), 2-{-4-[pyridin-4-yl-1-(2,2,2-trifluoroethyl)-1H-pyrazol-3-yl]phenoxymethyl}quinoline succinic acid or 2-[4-(1-methyl-4-pyridin-4-yl-1H-pyrazol-3-yl)-phenoxymethyl]quinoline succinic acid (see Schmidt, et al. J Pharmacol Exp Ther (2008) 325:681-690; Threlfell, et al., J Pharmacol Exp Ther (2009) 328(3): 785-795). 0% of inhibition is determined by using DMSO (1% final concentrations).
A Labcyte Echo 555 (Labcyte, Sunnyvale, Calif.) is used to dispense […] from each well of the titration plate to the 384 well assay plate. A solution of enzyme ( 1/1600 dilution from aliquots; sufficient to produce 20% substrate conversion) and a separate solution of FAM-labeled cAMP PDE from Molecular Devices (product # R7506), at a final concentration of 50 nM are made in the assay buffer (10 mM Tris HCl, pH 7.2, 10 mM MgCl2, 0.05% NaN3 0.01% Tween-20, and 1 mM DTT). The enzyme and the substrate are then added to the assay plates in two consecutive additions of 10 μL, and then shaken to mix. The reaction is allowed to proceed at room temperature for 30 minutes. A binding solution is then made from the kit components, comprised of 80% Solution A, 20% Solution B and binding reagent at a volume of 1/600 the total binding solution. […]

Sequence of human PDE10A2 (Q9Y233 267-1055): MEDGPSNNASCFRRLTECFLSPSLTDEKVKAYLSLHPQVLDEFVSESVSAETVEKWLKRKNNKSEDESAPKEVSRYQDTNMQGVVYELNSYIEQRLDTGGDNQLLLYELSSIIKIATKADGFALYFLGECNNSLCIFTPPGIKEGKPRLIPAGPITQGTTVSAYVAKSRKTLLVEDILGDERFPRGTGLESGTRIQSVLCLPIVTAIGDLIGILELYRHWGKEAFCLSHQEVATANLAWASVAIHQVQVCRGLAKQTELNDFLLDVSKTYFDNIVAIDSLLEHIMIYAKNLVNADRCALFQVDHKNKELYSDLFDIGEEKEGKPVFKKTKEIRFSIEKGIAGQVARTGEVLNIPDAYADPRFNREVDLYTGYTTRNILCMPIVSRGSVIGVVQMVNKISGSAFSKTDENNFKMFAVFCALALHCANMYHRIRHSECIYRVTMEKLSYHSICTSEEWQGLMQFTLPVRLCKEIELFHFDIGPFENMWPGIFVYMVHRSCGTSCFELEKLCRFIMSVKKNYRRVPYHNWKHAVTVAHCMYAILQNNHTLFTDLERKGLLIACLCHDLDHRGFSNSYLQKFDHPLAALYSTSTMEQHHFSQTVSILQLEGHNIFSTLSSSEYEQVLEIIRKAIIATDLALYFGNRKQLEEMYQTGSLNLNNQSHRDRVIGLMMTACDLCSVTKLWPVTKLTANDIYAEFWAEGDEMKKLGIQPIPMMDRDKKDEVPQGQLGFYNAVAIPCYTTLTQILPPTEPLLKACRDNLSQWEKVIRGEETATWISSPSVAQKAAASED

Row | Compound | Ki
1 | COc1ccc(CCCCc2cc(NCc3sc(C)nc3C)n3nccc3n2)nc1 [Compound 1-10, N-[(2,4-dimethyl-1,3-thiazol-5-yl)methyl]-5-[4-(5-methoxy-pyridin-2-yl)butyl]pyrazolo [1,5-a]pyrimidin-7-amine] | 0.37 nM
2 | COc1ccc([C@H]2C[C@@H]2COc2cc(NCc3oc(C)nc3C)n3nccc3n2)nc1 (stereo in doubt) [Compound 1-3, N-[(2,4-dimethyl-1,3-oxazol-5-yl)methyl]-5-{[2-(5-methoxy-pyridin-2-yl)cyclopropyl]-methoxy}pyrazolo [1,5-a]pyrimidin-7-amine] | 1.3 nM
3 | Cc1nc(C)c(CNc2cc(C3CC3)nc3ccnn23)s1 [Compound 1-9, 5-cyclopropyl-N-[(2,4-dimethyl-1,3-thiazol-5-yl)methyl]pyrazolo [1,5-a]pyrim-idin-7-amine] | 9.2 nM
4 | Cc1nc(C)c(CNc2cc(C(C)C[C@@H]3C[C@H]3c3ccccn3)nc3ccnn23)s1 (stereo in doubt) [Compound 1-13, N-[(2,4-dimethyl-1,3-thiazol-5-yl)methyl]-5-{1-[2-(pyridin-2-yl)cyclopropyl]propan-2-yl}pyrazolo[1,5-a] pyrimidin-7-amine] | 76.9 nM
5 | Cc1ncc(CNc2cc(OC[C@H]3C[C@@H]3c3ccccn3)nc3ccnn23)s1 [Compound 1-4, (S,S)-N-[(2-methyl-1,3-thiazol-5-yl)-methyl]-5-{[2-(pyridin-2-yl)cyclopropyl]methoxy} pyrazolo[1,5-a]pyrimidin-7-amine] | 0.11 nM

Continued, values first:

Row | Ki | Compound
6 | 2.52 nM | Cc1c(OC[C@H]2C[C@@H]2c2ccccn2)nc2ccnn2c1NCc1cnn(C)c1 [Compound 1-20, 6-methyl-N-[(1-methyl-1H-pyrazol-4-yl)methyl]-5-{[(1S,2S)-2-(pyridin-2-yl)cyclopropyl]methoxy} pyrazolo[1,5-a] pyrimidin-7-amine]
7 | 0.14 nM | Cc1nc(C)c(CNc2cc(CCC#Cc3ccc4ccccc4n3)nc3ccnn23)s1 [Compound 1-15, N-[(2,4-dimethyl-1,3-thiazol-5-yl)methyl]-5-[4-(quinolin-2-yl)but-3-yn-1-yl]pyrazolo[1,5-a] pyrimidin-7-amine]
8 | 1.1 nM | Cc1nc(C)c(CNc2cc(C(=O)NCCc3ccccn3)nc3ccnn23)s1 [Compound 1-25, 7-((2,4-dimethylthiazol-5-yl)methylamino)-N-(2-(pyridin-2-yl)ethyl)pyrazolo [1,5-a] pyrimidine-5-earboxanaide]
9 | 20 nM | Cc1ccc([C@H]2C[C@@H]2COc2cc(Oc3ccc(C)nc3)n3nccc3n2)nc1 [Compound 1-22, 5-{[(1S,2S)-2-(5-methylpyridin-2-yl)cyclopropyl]methoxy}-7-[(6-methylpyridin-3-yl)oxy]pyrazolo[1,5-a] pyrimidine]
10 | 0.18 nM | Cc1nc(C)c(CNc2cc(C(=O)NC[C@H]3C[C@@H]3c3ccc4ccccc4n3)nc3ccnn23)s1 [Compound 1-23, 7-((2,4-dimethylthiazol-5-yl)methylamino)-N-(((1S,2S)-2-(quinolin-2-yl)cyclopropyl)methyl) pyrazolo[1,5-a] pyrimidine-5-carboxamide]
11 | 0.08 nM | Cc1nnc(CNc2c(F)c(OC[C@H]3C[C@@H]3c3ccccn3)nc3ccnn23)s1 [Compound 1-18, 6-fluoro-N-[(5-methyl-1,3,4-thiadiazol-2-yl)methyl]-5-{[(1S,2S)-2-(pyridin-2-yl)cyclopropyl]methoxy} pyrazolo[1,5-a] pyrimidin-7-amine]

— US8957077B2, “Pyrazolopyrimidine PDE 10 inhibitors” (Merck Sharp & Dohme Corp., priority 2010, dated 2015)
